Activity calls are given as the source filed them.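 How the source made its calls: active means AC50 no more than ten times the top concentration tested, that is within one log above it; inconclusive means flat curve fit with activity between 30% and 70%, or invalid poor fit; inactive means AC50 beyond ten times the top tested dose.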
Test system: S. cerevisiae Mot1-301 ts growth rescue, BacTiter-Glo ATP luminescence
Assay: restored Mot1-301 yeast growth at 38.5C – whole organism, S. cerevisiae, Mot1-301 ts mutant, luminescence, dose retest, SUMOylation pathway inhibitor project, confirmation (AID 463204);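 further: growth at restrictive 38.5 degrees C of Mot1-301 OY566 strain; actives raise luminescence by restoring growth of the ts mutant at high temperature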

| Compound | AC50 |
| --- | --- |
| COc1ccc(CCN(C)CCCC(C#N)(c2ccc(OC)c(OC)c2)C(C)C)cc1OC (stereo not given) | > 42 µM (inactive) |
| CC1=C/C(=N\OS(=O)(=O)c2ccccc2)C(C(C)C)=CC1=O | 0.86 µM |
| CCCc1nc2c(nnn2Cc2ccccc2F)c(=O)[nH]1 | > 42 µM (inactive) |
| CCOC(=O)C1CCN(CC(O)COc2ccc(C(C)(C)C)cc2)CC1 (stereo not given) | > 42 µM (inactive) |
| CCN(Cc1ccccc1)Cc1ccc(OCc2ccccc2)c(OC)c1 | > 42 µM (inactive) |
| CCN(CC)c1ccc(/C=N/NC(=O)OC(C)(C)C)cc1 | > 42 µM (inactive) |
| O=C1c2ccccc2C(=O)N1CCCCSc1nc2ccccc2c(=O)n1CCCN1CCOCC1 | > 42 µM (inactive) |
| COc1ccccc1CNC(=O)C1CCC(=O)N1C(C)C (stereo not given) | > 42 µM (inactive) |
| CCOC(=O)C1CCCN(C(=O)c2cc(-c3ccc(F)cc3)nc3ccccc23)C1 (stereo not given) | > 42 µM (inactive) |
| CC(=O)c1ccc(Oc2cc(C)nc(N3CCOCC3)n2)cc1 | > 42 µM (inactive) |
| CNS(=O)(=O)c1cccc(C(=O)OCC(=O)Nc2ccc(OC)cc2[N+](=O)[O-])c1 | > 42 µM (inactive) |
| CC1(C)NC(=O)N(CCCOc2ccccc2Br)C1=O | > 42 µM (inactive) |
| CSc1ncccc1C(=O)NC1CCCc2c1cnn2-c1ccc(C)c(C)c1 (stereo not given) | > 42 µM (inactive) |
| CCC1SC2=NC(C)=C(C(=O)OCCOC)C(c3ccc(C(=O)OC)cc3)N2C1=O (stereo not given) | > 42 µM (inactive) |
| Cc1ccc(SCCC(=O)Nc2ccc(OCc3ccccc3)cc2)cc1 | > 42 µM (inactive) |
| COc1ccccc1C(=O)N(NC(=O)Oc1ccccc1)C(C)(C)C | > 42 µM (inactive) |
| O=[N+]([O-])c1cccc(-c2nc3ccc([N+](=O)[O-])cc3[nH]2)c1 | > 42 µM (inactive) |
| CCOc1ccc(NC(=O)CN(C)C(=O)c2ccc(OCc3ccccc3)c(OC)c2)cc1OCC | > 42 µM (inactive) |
| CC(=O)c1c(N)[nH]c(-c2ccccc2)nc1=S | > 42 µM (inactive) |
| CCOC(=O)Cn1c(=O)n(Cc2ccco2)c(=O)c2ccc(C(=O)NCCc3ccccc3)cc21 | > 42 µM (inactive) |
| COc1cccc(-n2c(Cc3cc(=O)[nH]c(=O)[nH]3)nnc2SCc2cccnc2)c1 | > 42 µM (inactive) |
| Cc1ccc(C)n1-c1ccc(N(C)C)cc1 | > 42 µM (inactive) |
| C=CCn1cc(C(C)=O)c(=O)[nH]c1=O | > 42 µM (inactive) |
| COc1cccc(OC)c1C(=O)Nc1ccc2c(c1)N(S(=O)(=O)c1cccs1)CCC2 | > 42 µM (inactive) |
| CN(C)c1ccc(CN(Cc2ccco2)C(=O)c2ccco2)cc1 | > 42 µM (inactive) |

| Compound | AC50 |
| --- | --- |
| O=c1c2ccccc2nc(SCc2ccc([N+](=O)[O-])cc2)n1CCCO | > 42 µM (inactive) |
| CN(CC(=O)Nc1cccc(F)c1)CC(=O)Nc1cccc(S(N)(=O)=O)c1 | > 110 µM (inactive) |
| O=C(COC(=O)COc1ccccc1Cl)Nc1ccccc1OC(F)F | > 42 µM (inactive) |
| Cc1cccn2c(=O)c3cc(C(=O)NCc4cccnc4)c(=N)n(C(C)C)c3nc12 | > 42 µM (inactive) |
| O=C(Oc1ccc2c(c1)OCO2)c1cccs1 | > 42 µM (inactive) |
| Cc1nn(C)cc1S(=O)(=O)Nc1ncccn1 | > 42 µM (inactive) |
| CCNC(=S)Nc1ccc(C)c(S(=O)(=O)Nc2ccccc2OC)c1 | > 42 µM (inactive) |
| Cc1c(O)ccc(C(=O)CN2C(=O)c3ccccc3C2=O)c1O | > 42 µM (inactive) |
| CCNc1ccc(S(=O)(=O)N(C)C)cc1NCC(=O)Nc1ccccc1Br | > 42 µM (inactive) |
| Cc1ccc(S(=O)(=O)N2CCOCC2)cc1NC(=O)COC(=O)CCC(=O)c1cccs1 | > 42 µM (inactive) |
| COc1ccc(-c2csc(Nc3cc(C)ccn3)n2)cc1C | > 42 µM (inactive) |
| CN(C)CCNC(=O)c1scc2c1CCCC2 | 29.2 µM |
| CC1=CC(=O)C=CC1(C)C(Cl)(Cl)Cl (stereo not given) | > 42 µM (inactive) |
| CCCC(O)(c1ccc(Br)cc1)C(CN1CCOCC1)c1ccc(Cl)cc1 (stereo not given) | 5.13 µM |
| CN(C)/C=C/C(=O)c1ccncc1 | > 42 µM (inactive) |
| CC1CCN(Cc2nc3c(c(=O)n(C)c(=O)n3C)n2CCc2ccccc2)CC1 | > 42 µM (inactive) |
| COCC(=O)n1nc(-c2ccccc2)nc1NCc1ccc(N(C)C)cc1 | > 42 µM (inactive) |
| Cc1n[nH]c(C)c1S(=O)(=O)N(CC(=O)NC1CCCC1)c1ccc(C(C)C)cc1 | > 21 µM (inactive) |
| C[C@@]12C(=O)Nc3cc(Cl)ccc3C(=O)N1[C@H]1c3ccccc3OC[C@@H]1[C@@H]2c1ccccc1 | 1.98 µM |
| CC(=O)N(C(C)=O)c1c(C#N)c(C)n(-c2ccccc2)c1C(=O)c1ccccc1 | 20.4 µM |
| COc1ccc(NC(=O)c2ccc(S(=O)(=O)N(C)c3ccccc3)cc2)cn1 | > 42 µM (inactive) |
| CCCCCCOc1ccc(N2C(=O)CC(N3CCC(C(=O)OCC)CC3)C2=O)cc1 (stereo not given) | 4.96 µM |
| COc1ccc(NC(=O)c2ccc(COc3ccccc3OC)o2)cc1OC | > 42 µM (inactive) |
| Cc1cc(C(=O)OCC(=O)Nc2cccc(S(N)(=O)=O)c2)c2ccccc2n1 | > 42 µM (inactive) |
| Cc1c(Cl)cccc1NC(=S)NCCCN(C)C | > 42 µM (inactive) |

| Compound | AC50 |
| --- | --- |
| CC(C)(c1ccccc1)c1ccc(OCCN2CCOCC2)cc1 | > 42 µM (inactive) |
| Fc1ccc(-c2nnc3ccc(N4CCCC4)nn23)cc1 | > 42 µM (inactive) |
| Cc1sc2nc(CN3CCCC3)nc(NCc3ccncc3)c2c1C | > 42 µM (inactive) |
| CCOC(=O)C1CCCN(C(=O)/C=C/c2ccc(Cl)cc2)C1 (stereo not given) | > 42 µM (inactive) |
| Cc1ccc(N(C(=O)CCl)C(C(=O)NC2CCCCC2)c2cccnc2)cc1C (stereo not given) | 9.72 µM |
| FC(F)(F)c1nnc(-c2ccccc2)nc1Oc1ccc(Cl)cc1Cl | > 42 µM (inactive) |
| Cc1cnc(C(=O)OC(C(=O)c2c[nH]c3ccccc23)c2ccccc2)cn1 (stereo not given) | 29.4 µM |
| CCN(CC1COc2ccccc2O1)C(=S)NCCCN(C)C (stereo not given) | > 42 µM (inactive) |
| CS(=O)(=O)N(CC(=O)N1CCN(c2ccccc2F)CC1)C1CCCCC1 | > 42 µM (inactive) |
| COc1cc([N+](=O)[O-])cc(/C=N/NC(=O)c2cc(C)nc3ccccc23)c1O | > 42 µM (inactive) |
| Cc1cccc(N2C(=O)/C(=C/c3cccnc3)SC2=S)c1 | > 42 µM (inactive) |
| CCn1nc(C(=O)OCc2cccc(S(=O)(=O)N(C)C)c2)c2ccccc2c1=O | > 42 µM (inactive) |
| CN1C(=O)NC(=O)[C@]2(Cc3ccccc3N3CCN(c4ccccc4)CC32)C1=O (stereo not given in full) | > 42 µM (inactive) |
| CN(C(=O)COc1cc(=O)n(C)c2ccccc12)c1ccc(Cl)cc1 | > 42 µM (inactive) |
| COc1cccc(CN(C)CC2CCCN(CCc3ccc(Cl)cc3)C2)c1OC (stereo not given) | > 42 µM (inactive) |
| O=C1N=C(N2CCOCC2)S/C1=C\c1cccnc1 | > 42 µM (inactive) |
| O=C(Cc1ccc(Cl)cc1)NC(=S)Nc1ccccc1N1CCOCC1 | > 42 µM (inactive) |
| CN(C(=S)NC1=CCS(=O)(=O)C1)C1CCCCC1 | > 42 µM (inactive) |
| O=C1NC(=O)C(=Cc2ccc(N3CCOCC3)cc2)C(=O)N1 | > 42 µM (inactive) |
| CCOC(=O)N1CCN(C(=O)c2ccc(OC)c(OC)c2)CC1 | > 42 µM (inactive) |
| O=S(=O)(NCC1CCCO1)c1cc(Cl)ccc1Br (stereo not given) | > 42 µM (inactive) |
| C=CCNc1nnc(SC2CC(=O)N(c3ccc(OCCC)cc3)C2=O)s1 (stereo not given) | 4.49 µM |
| Cc1cc(NC(=O)/C=C/c2ccco2)ccc1NC(=O)c1ccccc1 | > 42 µM (inactive) |
| COc1ccc(S(=O)(=O)N2CCOC2CNC(=O)C(=O)NCc2ccncc2)cc1C (stereo not given) | > 42 µM (inactive) |
| Cc1ccc(NC(=S)N2CCN(Cc3ccc4c(c3)OCO4)CC2)c(C)c1 | > 42 µM (inactive) |

| Compound | AC50 |
| --- | --- |
| N#CCSc1nc2c(c(C3CC=CCC3)c1C#N)CCC2 (stereo not given) | > 42 µM (inactive) |
| O=C(NCc1ccco1)C1CC(=O)N(c2ccc(Cl)cc2)C1 (stereo not given) | > 42 µM (inactive) |
| Cc1ccc(NS(=O)(=O)c2csc(C(N)=O)c2)cc1C | > 42 µM (inactive) |
| COC(=O)C(NC(C)=O)(Nc1nc2ccc(S(C)(=O)=O)cc2s1)C(F)(F)F (stereo not given) | > 42 µM (inactive) |
| CC(C)CCNC(=O)Nc1ccc2c(c1)N(C)C(=O)CS2 | > 42 µM (inactive) |
| C/C(=C\C(=O)N1CCc2ccccc21)C(=O)O | > 42 µM (inactive) |
| COc1ccc(OC)c(-c2cc(C(=O)Nc3c(C)nn(Cc4ccccc4Cl)c3C)no2)c1 | > 42 µM (inactive) |
| CN(C)c1ccc(C(CNS(=O)(=O)c2ccc([N+](=O)[O-])cc2)N2CCOCC2)cc1 (stereo not given) | > 42 µM (inactive) |
| CN(CC(=O)N1CCc2[nH]c3ccc(F)cc3c2C1)CC1OCCO1 | > 42 µM (inactive) |
| Cc1c(C(=O)N2CCCC2)c(S(=O)(=O)Nc2cccc(Br)c2)c(C)n1C | > 42 µM (inactive) |
| Cc1ccc(CNC(=O)CCNS(=O)(=O)c2cccs2)cc1 | > 42 µM (inactive) |
| O=C(c1ccc(CS(=O)(=O)c2ccccc2)o1)N1CCOCC1 | > 42 µM (inactive) |
| CC(C)(C)c1cc(NCCCn2ccnc2)n2ncc(-c3ccc(Cl)cc3)c2n1 | 5.57 µM |
| Cc1nc(SCC(=O)O)n[nH]1 | > 42 µM (inactive) |
| O=C(CCSc1ccccc1)NNC(=O)c1ccccc1F | > 42 µM (inactive) |
| CC(=O)OCC(OC(C)=O)C(OC(C)=O)C(OC(C)=O)C(=O)Nc1ccccc1 (stereo not given) | > 42 µM (inactive) |
| CCCCCC(=O)Nc1ccc(-c2csc(N)n2)cc1 | > 42 µM (inactive) |
| OCC[C@@H]1C[C@H](O)[C@@H](O)[C@]2(CCc3ccccc3CO2)O1 | > 42 µM (inactive) |
| Cc1cc(C)c(S(=O)(=O)c2cccc(C)c2C)c(=O)[nH]1 | > 42 µM (inactive) |
| O=C1CCCN1CCC(=O)N1CCCC(N2CCN(c3ccccc3F)CC2)C1 (stereo not given) | > 42 µM (inactive) |
| CCCC(=O)N(CCN1CCOCC1)c1nc2ccc(OCC)cc2s1 | > 42 µM (inactive) |
| COc1ccc(NC(=O)CN(C)C(=O)/C=C/c2cn(-c3ccccc3)nc2-c2ccc(F)cc2)cc1 | > 42 µM (inactive) |
| CCc1cc(/C(Cc2ccccn2)=N\O)c(O)cc1O | > 42 µM (inactive) |
| O=C(Nc1ccc2nc(-c3ccc4nc[nH]c4c3)[nH]c2c1)c1cccs1 | > 42 µM (inactive) |
| COc1ccc(N2CCN(C(c3cccs3)C(C)NS(C)(=O)=O)CC2)cc1 (stereo not given) | > 42 µM (inactive) |
